Source: US9833497B2, “Human originated EGF domain proteins and use of the same” (CHENGDU SOURCEBIO LIMITED-LIABILITY COMPANY, priority 2013, dated 2017)

Key:
Assay type in all cases: cell-based
Moraxella catarrhalis = experiment: MIC against Gram-negative bacteria: Moraxella catarrhalis; conditions: 5×10^5 CFU/mL
Procedure, shortened: (§1)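 Purified recombinant human EGF domain proteins are tested by broth dilution in LB against a 5×10^5 CFU/mL inoculum, with two-fold serial dilutions run in triplicate. Plates are incubated at 37° C with shaking, and the MIC is read as the lowest protein concentration without growth.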

Enterobacter cloacae = experiment: MIC against Gram-negative bacteria: Enterobacter cloacae; conditions: 5×10^5 CFU/mL
Procedure, shortened: as §1

Klebsiella pneumonia = experiment: MIC against Gram-negative bacteria: Klebsiella pneumonia; conditions: 5×10^5 CFU/mL
Procedure, shortened: as §1

Proteus vulgaris = experiment: MIC against Gram-negative bacteria: Proteus vulgaris; conditions: 5×10^5 CFU/mL
Procedure, shortened: as §1

Citrobacter diversus = experiment: MIC against Gram-negative bacteria: Citrobacter diversus; conditions: 5×10^5 CFU/mL
Procedure, shortened: as §1

E. coli BL21 = experiment: MIC against Gram-negative bacteria: E. coli BL21; conditions: 5×10^5 CFU/mL
Procedure, shortened: as §1

Serratia marcescens = experiment: MIC against Gram-negative bacteria: Serratia marcescens; conditions: 5×10^5 CFU/mL
Procedure, shortened: as §1

E. coli DH5α = experiment: Antibacterial activity: MIC and growth curve against E. coli DH5α in 96-well plate; conditions: minimal inhibitory concentration against E. coli DH5α; 96-well plate, 5×10^5 CFU/mL, 37° C., judged after 8 h
Procedure, shortened: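 Log-phase DH5α (OD600 about 0.5, 37° C, 185 rpm in LB) was pelleted, resuspended in fresh LB and seeded at 5×10^5 CFU/mL with recombinant protein at 50, 25 and 12.5 μg/mL (two-fold series), in triplicate. Plates were shaken at 175 rpm, 37° C, and OD600 was read every 30 min. MIC was the lowest concentration with no growth.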

Proteus mirabilis = experiment: MIC against Gram-negative bacteria: Proteus mirabilis; conditions: 5×10^5 CFU/mL
Procedure, shortened: as §1

Pseudomonas aeruginosa = experiment: MIC against Gram-negative bacteria: Pseudomonas aeruginosa; conditions: 5×10^5 CFU/mL
Procedure, shortened: as §1

Aeromonas hydrophila = experiment: MIC against Gram-negative bacteria: Aeromonas hydrophila; conditions: 5×10^5 CFU/mL
Procedure, shortened: as §1

[1] = 10 h cultivation at 37° C., two-fold serial dilution

## PRT1126 (DVRACSSAPCANNRTCVSLDDGLYECSCAPGYSGKDCQ; listed as Homo sapiens)
Moraxella catarrhalis; [1]
  MIC M. catarrhalis: 12.5 µg/mL
Enterobacter cloacae; [1]
  MIC E. cloacae: 25 µg/mL
Klebsiella pneumonia; [1]
  MIC K. pneumonia: 12.5 µg/mL
Proteus vulgaris; [1]
  MIC P. vulgaris: 12.5 µg/mL
Citrobacter diversus; [1]
  MIC C. diversus: 50 µg/mL
E. coli BL21; [1]
  MIC E. coli BL21: 50 µg/mL
Serratia marcescens; [1]
  MIC S. marcescens: 50 µg/mL
E. coli DH5α
  MIC: 25 µg/mL
Proteus mirabilis; [1]
  MIC P. mirabilis: 50 µg/mL
Pseudomonas aeruginosa; [1]
  MIC P. aeruginosa: 25 µg/mL
Aeromonas hydrophila; [1]
  MIC A. hydrophila: 25 µg/mL

## PRT484 (RCEDLDGVVCGGHGTCSCGRCVCERGWFGKLCQ; listed as Homo sapiens)
Moraxella catarrhalis; 96-well plate, 37° C., 10 h
  MIC against M. catarrhalis: 50 µg/mL
Enterobacter cloacae; 96-well plate, 37° C., 10 h
  MIC against E. cloacae: 12.5 µg/mL
Klebsiella pneumonia; 96-well plate, 37° C., 10 h
  MIC against K. pneumonia: 50 µg/mL
Proteus vulgaris; 96-well plate, 37° C., 10 h
  MIC against P. vulgaris: 50 µg/mL
Citrobacter diversus; 96-well plate, 37° C., 10 h
  MIC against C. diversus: 12.5 µg/mL
E. coli BL21; 96-well plate, 37° C., 10 h
  MIC against E. coli BL21: 12.5 µg/mL
Serratia marcescens; 96-well plate, 37° C., 10 h
  MIC against S. marcescens: 12.5 µg/mL
E. coli DH5α
  MIC: 25 µg/mL
Proteus mirabilis; 96-well plate, 37° C., 10 h
  MIC against P. mirabilis: 12.5 µg/mL
Pseudomonas aeruginosa; 96-well plate, 37° C., 10 h
  MIC against P. aeruginosa: 25 µg/mL
Aeromonas hydrophila; 96-well plate, 37° C., 10 h
  MIC against A. hydrophila: 50 µg/mL

## PRT600 (CDCNPLGSLPFLTCDVDTGQCLCLSYVTGAHCEECTVGYWGLGNHLHGCSP; listed as Homo sapiens)
Moraxella catarrhalis; 96-well plate, 37° C., 10 h
  MIC M. catarrhalis: 50 µg/mL
Enterobacter cloacae; 96-well plate, 37° C., 10 h
  MIC E. cloacae: 25 µg/mL
Klebsiella pneumonia; 96-well plate, 37° C., 10 h
  MIC K. pneumonia: 50 µg/mL
Proteus vulgaris; 96-well plate, 37° C., 10 h
  MIC P. vulgaris: 12.5 µg/mL
Citrobacter diversus; 96-well plate, 37° C., 10 h
  MIC C. diversus: 25 µg/mL
E. coli BL21; 96-well plate, 37° C., 10 h
  MIC E. coli BL21: 12.5 µg/mL
Serratia marcescens; 96-well plate, 37° C., 10 h
  MIC S. marcescens: 25 µg/mL
E. coli DH5α
  MIC: 25 µg/mL
Proteus mirabilis; 96-well plate, 37° C., 10 h
  MIC P. mirabilis: 25 µg/mL
Pseudomonas aeruginosa; 96-well plate, 37° C., 10 h
  MIC P. aeruginosa: 25 µg/mL
Aeromonas hydrophila; 96-well plate, 37° C., 10 h
  MIC A. hydrophila: 12.5 µg/mL

## PRT1335 (MTDICKSDNPCHRNANCTTVAPGRTECICQKGYVGDGLTCY; listed as Homo sapiens)
Moraxella catarrhalis; Moraxella catarrhalis, 96-well plate, 37° C., 10 h
  MIC against M. catarrhalis: 50 µg/mL
Enterobacter cloacae; Enterobacter cloacae, 96-well plate, 37° C., 10 h
  MIC against E. cloacae: 50 µg/mL
Klebsiella pneumonia; Klebsiella pneumonia, 96-well plate, 37° C., 10 h
  MIC against K. pneumonia: 12.5 µg/mL
Proteus vulgaris; Proteus vulgaris, 96-well plate, 37° C., 10 h
  MIC against P. vulgaris: 12.5 µg/mL
Citrobacter diversus; Citrobacter diversus, 96-well plate, 37° C., 10 h
  MIC against C. diversus: 25 µg/mL
E. coli BL21; E. coli BL21, 96-well plate, 37° C., 10 h
  MIC against E. coli BL21: 12.5 µg/mL
Serratia marcescens; Serratia marcescens, 96-well plate, 37° C., 10 h
  MIC against S. marcescens: 50 µg/mL
E. coli DH5α
  MIC: 50 µg/mL
Proteus mirabilis; Proteus mirabilis, 96-well plate, 37° C., 10 h
  MIC against P. mirabilis: 25 µg/mL
Pseudomonas aeruginosa; Pseudomonas aeruginosa, 96-well plate, 37° C., 10 h
  MIC against P. aeruginosa: 50 µg/mL
Aeromonas hydrophila; Aeromonas hydrophila, 96-well plate, 37° C., 10 h
  MIC against A. hydrophila: 12.5 µg/mL

## PRT1132 (DEHICTTQSPCQNGGQCMYDGGGEYHCVCLPGFHGRDCE; listed as Homo sapiens)
Moraxella catarrhalis; [1]
  MIC M. catarrhalis: 12.5 µg/mL
Enterobacter cloacae; [1]
  MIC E. cloacae: 50 µg/mL
Klebsiella pneumonia; [1]
  MIC K. pneumonia: 12.5 µg/mL
Proteus vulgaris; [1]
  MIC P. vulgaris: 50 µg/mL
Citrobacter diversus; [1]
  MIC C. diversus: 50 µg/mL
E. coli BL21; [1]
  MIC E. coli BL21: 12.5 µg/mL
Serratia marcescens; [1]
  MIC S. marcescens: 25 µg/mL
E. coli DH5α
  MIC: 50 µg/mL
Proteus mirabilis; [1]
  MIC P. mirabilis: 25 µg/mL
Pseudomonas aeruginosa; [1]
  MIC P. aeruginosa: 50 µg/mL
Aeromonas hydrophila; [1]
  MIC A. hydrophila: 12.5 µg/mL

## PRT1117 (EVDECASAPCLHGGSCLDGVGSFRCVCAPGYGGTRCQ; listed as Homo sapiens)
Moraxella catarrhalis; [1]
  MIC M. catarrhalis: 12.5 µg/mL
Enterobacter cloacae; [1]
  MIC E. cloacae: 50 µg/mL
Klebsiella pneumonia; [1]
  MIC K. pneumonia: 12.5 µg/mL
Proteus vulgaris; [1]
  MIC P. vulgaris: 12.5 µg/mL
Citrobacter diversus; [1]
  MIC C. diversus: 25 µg/mL
E. coli BL21; [1]
  MIC E. coli BL21: 12.5 µg/mL
Serratia marcescens; [1]
  MIC S. marcescens: 25 µg/mL
E. coli DH5α
  MIC: 50 µg/mL
Proteus mirabilis; [1]
  MIC P. mirabilis: 25 µg/mL
Pseudomonas aeruginosa; [1]
  MIC P. aeruginosa: 50 µg/mL
Aeromonas hydrophila; [1]
  MIC A. hydrophila: 12.5 µg/mL

## PRT172 (CADGPCFNGGRCSDSPDGGYSCRCPVGYSGFNC; listed as Homo sapiens)
Moraxella catarrhalis; M. catarrhalis, 10 h cultivation at 37° C.
  MIC (μg/mL) M. catarrhalis: 12.5 µg/mL
Enterobacter cloacae; E. cloacae, 10 h cultivation at 37° C.
  MIC (μg/mL) E. cloacae: 12.5 µg/mL
Klebsiella pneumonia; K. pneumonia, 10 h cultivation at 37° C.
  MIC (μg/mL) K. pneumonia: 25 µg/mL
Proteus vulgaris; P. vulgaris, 10 h cultivation at 37° C.
  MIC (μg/mL) P. vulgaris: 12.5 µg/mL
Citrobacter diversus; C. diversus, 10 h cultivation at 37° C.
  MIC (μg/mL) C. diversus: 12.5 µg/mL
E. coli BL21; E. coli BL21, 10 h cultivation at 37° C.
  MIC (μg/mL) E. coli BL21: 25 µg/mL
Serratia marcescens; S. marcescens, 10 h cultivation at 37° C.
  MIC (μg/mL) S. marcescens: 12.5 µg/mL
E. coli DH5α
  MIC: 12.5 µg/mL
Proteus mirabilis; P. mirabilis, 10 h cultivation at 37° C.
  MIC (μg/mL) P. mirabilis: 12.5 µg/mL
Pseudomonas aeruginosa; P. aeruginosa, 10 h cultivation at 37° C.
  MIC (μg/mL) P. aeruginosa: 50 µg/mL
Aeromonas hydrophila; A. hydrophila, 10 h cultivation at 37° C.
  MIC (μg/mL) A. hydrophila: 12.5 µg/mL
